Test results taken from patent US20050060764A1, “Mouse model for bone metabolism” (priority 2003, published 2005).
Strand notation (5' to 3'): a small letter for the sugar, then the base; units joined by * are phosphorothioate-linked, units joined directly phosphodiester-linked; [ ] holds rarer units or linkages, { } end groups; capitals alone tell only the bases. e = 2'-O-(2-methoxyethyl) (MOE); [5mC] = 5-methylcytosine; d = 2'-deoxy (DNA)

System: mouse RANKL mRNA
Assay: Antisense inhibition of mouse RANKL mRNA levels in C2C12 cells, quantitative real-time PCR (Table 2)
Type: cell-based
Design: concentration or dose not given beside the values
Conditions: averages from three experiments
Description: Cells were seeded into 24-well plates (Falcon-353047 at a density of ˜10,000 cells/cm^2 for use in antisense oligonucleotide transfection.
Cells are treated and data are obtained in triplicate. […] Cells were harvested 16-24 hours after oligonucleotide treatment.
PCR reagents were obtained from Invitrogen Corporation, (Carlsbad, Calif.).
Probes and primers to mouse RANKL were designed to hybridize to a mouse RANKL sequence, using published sequence information (GenBank accession number AF013170.1, incorporated herein as SEQ ID NO:ll). For mouse RANKL the PCR primers were: • forward primer: […] (SEQ ID NO:12) • reverse primer: […] (SEQ ID NO: 13) and • the PCR probe was: FAM-[…]-TAMRA (SEQ ID NO: 14) where FAM is the fluorescent reporter dye and TAMRA is the quencher dye. For mouse GAPDH the PCR primers were: • forward primer: […](SEQ ID NO:15) • reverse primer: […](SEQ ID NO:16) and the • PCR probe was: 5′ JOE-[…]-TAMRA 3′ (SEQ ID NO: 17) where JOE is the fluorescent reporter dye and TAMRA is the quencher dye.
In accordance with the present invention, a second series of antisense compounds was designed to target different regions of the mouse RANKL RNA, using published sequences (GenBank accession number AF013170.1, incorporated herein as SEQ ID NO: 11). […] All cytidine residues are 5-methylcytidines. […] If present “N.D.” indicates “no data”.

Substance	% INHIB (inhibition of mouse RANKL mRNA levels)
180788 (antisense eG*eT*eT*e[5mC]*eA*d[5mC]*dA*dA*dA*dG*dG*dT*d[5mC]*d[5mC]*dT*eG*eG*e[5mC]*eA*eG) [compound 180788]	62%
180789 (antisense eG*e[5mC]*eA*eG*eA*d[5mC]*dT*d[5mC]*d[5mC]*dG*d[5mC]*d[5mC]*dA*d[5mC]*dG*eG*e[5mC]*e[5mC]*e[5mC]*e[5mC]) [compound 180789]	34%
180790 (antisense eA*eG*e[5mC]*eA*eG*dA*d[5mC]*dT*d[5mC]*d[5mC]*dG*d[5mC]*d[5mC]*dA*d[5mC]*eG*eG*e[5mC]*e[5mC]*e[5mC]) [compound 180790]	59%
180791 (antisense e[5mC]*e[5mC]*eG*e[5mC]*e[5mC]*dG*dA*dG*d[5mC]*dA*dG*dA*d[5mC]*dT*d[5mC]*e[5mC]*eG*e[5mC]*e[5mC]*eA) [compound 180791]	44%
180792 (antisense eT*eG*e[5mC]*eT*e[5mC]*d[5mC]*dG*d[5mC]*dG*dA*dT*d[5mC]*dG*dT*dT*e[5mC]*eT*e[5mC]*eT*e[5mC]) [compound 180792]	77%
180793 (antisense eG*e[5mC]*e[5mC]*e[5mC]*eT*dG*d[5mC]*dT*d[5mC]*d[5mC]*dG*d[5mC]*dG*dA*dT*e[5mC]*eG*eT*eT*e[5mC]) [compound 180793]	74%
180794 (antisense e[5mC]*e[5mC]*eG*eG*e[5mC]*dG*d[5mC]*dA*dT*dG*dG*d[5mC]*dG*d[5mC]*dG*eG*e[5mC]*eG*e[5mC]*e[5mC]) [compound 180794]	0%
180795 (antisense eG*e[5mC]*eT*eG*eG*d[5mC]*d[5mC]*d[5mC]*dG*dG*d[5mC]*dG*d[5mC]*dA*dT*eG*eG*e[5mC]*eG*e[5mC]) [compound 180795]	62%
180796 (antisense eT*e[5mC]*eG*eG*e[5mC]*dT*dG*dG*d[5mC]*d[5mC]*d[5mC]*dG*dG*d[5mC]*dG*e[5mC]*eA*eT*eG*eG) [compound 180796]	67%
180797 (antisense eT*e[5mC]*eT*e[5mC]*eG*dG*d[5mC]*dT*dG*dG*d[5mC]*d[5mC]*d[5mC]*dG*dG*e[5mC]*eG*e[5mC]*eA*eT) [compound 180797]	60%
180798 (antisense e[5mC]*e[5mC]*eT*eT*e[5mC]*dG*dT*dG*dT*dG*dG*dG*dA*d[5mC]*dG*e[5mC]*e[5mC]*eG*eG*eG) [compound 180798]	34%
180799 (antisense e[5mC]*eG*eG*eG*eA*dG*dG*d[5mC]*dG*dG*d[5mC]*dG*dG*dG*dT*eG*eG*e[5mC]*eG*eG) [compound 180799]	52%
180800 (antisense eA*e[5mC]*eA*eT*eG*dG*dA*dG*d[5mC]*dG*dG*dG*dA*dG*dG*e[5mC]*eG*eG*e[5mC]*eG) [compound 180800]	54%
180801 (antisense eA*eA*e[5mC]*eA*eT*dG*dG*dA*dG*d[5mC]*dG*dG*dG*dA*dG*eG*e[5mC]*eG*eG*e[5mC]) [compound 180801]	40%
180803 (antisense eT*e[5mC]*eT*eT*e[5mC]*dA*d[5mC]*dT*d[5mC]*dT*d[5mC]*d[5mC]*dA*dG*dA*eG*eT*e[5mC]*eG*eA) [compound 180803]	55%
180804 (antisense e[5mC]*eA*eG*eT*eT*d[5mC]*d[5mC]*dT*dT*d[5mC]*dT*dG*d[5mC]*dA*d[5mC]*eG*eG*e[5mC]*e[5mC]*e[5mC]) [compound 180804]	44%

Substance	% INHIB (inhibition of mouse RANKL mRNA levels)
180805 (antisense eG*eG*e[5mC]*eT*eT*dG*d[5mC]*d[5mC]*dT*d[5mC]*dG*d[5mC]*dT*dG*dG*eG*e[5mC]*e[5mC]*eA*e[5mC]) [compound 180805]	62%
180808 (antisense eA*eG*e[5mC]*eT*eG*dA*dA*dG*dA*dT*dA*dG*dT*d[5mC]*dT*eG*eT*eA*eG*eG) [compound 180808]	74%
180810 (antisense eT*e[5mC]*eA*eG*eA*dA*dT*dT*dG*d[5mC]*d[5mC]*d[5mC]*dG*dA*d[5mC]*e[5mC]*eA*eG*eT*eT) [compound 180810]	83%
180811 (antisense eA*eT*eG*e[5mC]*eT*dA*dA*dT*dT*dT*d[5mC]*dT*dT*d[5mC]*dA*e[5mC]*e[5mC]*eA*eG*e[5mC]) [compound 180811]	67%
180813 (antisense eA*eT*eG*eT*eT*d[5mC]*d[5mC]*dA*d[5mC]*dG*dA*dA*dA*dT*dG*eA*eG*eT*e[5mC]*eT) [compound 180813]	48%
180815 (antisense eT*e[5mC]*eA*eT*eA*d[5mC]*dA*d[5mC]*d[5mC]*dG*dT*dG*dG*dG*d[5mC]*e[5mC]*eA*eT*eG*eT) [compound 180815]	30%
180816 (antisense eA*e[5mC]*e[5mC]*eG*eT*dT*dG*dT*dG*dT*dA*dA*dT*d[5mC]*dA*e[5mC]*e[5mC]*eA*eT*eG) [compound 180816]	35%
180817 (antisense eG*e[5mC]*eA*eT*e[5mC]*dG*dG*dA*dA*dT*dA*d[5mC]*d[5mC]*dT*d[5mC]*eT*e[5mC]*e[5mC]*e[5mC]*eA) [compound 180817]	51%
180818 (antisense eT*e[5mC]*eA*eG*eT*dG*dG*d[5mC]*dA*d[5mC]*dA*dT*dG*dT*d[5mC]*e[5mC]*eA*eG*eG*eG) [compound 180818]	59%
180820 (antisense e[5mC]*eT*eT*eA*eT*dT*dT*dG*d[5mC]*dA*dG*dG*dT*d[5mC]*d[5mC]*e[5mC]*eA*eG*e[5mC]*eG) [compound 180820]	44%
180821 (antisense e[5mC]*eA*eT*eT*eA*d[5mC]*dA*d[5mC]*d[5mC]*dT*dG*dA*dA*dA*dT*eA*eT*eA*eA*e[5mC]) [compound 180821]	15%
180822 (antisense eA*eA*eT*e[5mC]*eA*dA*dA*dT*dA*d[5mC]*dT*dA*dT*dA*dG*e[5mC]*eA*e[5mC]*eA*eA) [compound 180822]	24%
180823 (antisense eT*eA*eA*eA*eT*dA*dT*dT*dT*dT*dG*dA*dA*dT*d[5mC]*eA*eA*eA*eT*eA) [compound 180823]	9%
180824 (antisense eT*eG*eT*e[5mC]*eA*dA*d[5mC]*dA*dG*dT*dG*dA*dG*dA*d[5mC]*eA*eT*eT*eT*eT) [compound 180824]	29%
180825 (antisense eG*eT*eA*e[5mC]*eA*dT*dT*dT*dA*dA*dA*dA*d[5mC]*dA*dT*eT*eA*eA*eA*eT) [compound 180825]	25%

System: rat RANKL mRNA
Assay: Antisense inhibition of rat RANKL mRNA levels in UMR-106 cells, quantitative real-time PCR (Table 3)
Type: cell-based
Design: concentration or dose not given beside the values
Conditions: averages from three experiments
Outline: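 UMR-106 cells transfected with antisense oligonucleotides (5-methylcytidine throughout) in triplicate, harvested 16-24 h after treatment. RANKL mRNA quantified by real-time RT-PCR with a FAM/TAMRA probe, using rat GAPDH (JOE/TAMRA probe) as the reference.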

Substance	% INHIB (inhibition of rat RANKL mRNA levels)
tctgttaggatccatctgcg (eT*e[5mC]*eT*eG*eT*dT*dA*dG*dG*dA*dT*d[5mC]*d[5mC]*dA*dT*e[5mC]*eT*eG*e[5mC]*eG; antisense) [ISIS 286596, 2′-MOE gapmer targeted to rat RANKL]	at least 40%
tgtggccccacaatgtgttg (eT*eG*eT*eG*eG*d[5mC]*d[5mC]*d[5mC]*d[5mC]*dA*d[5mC]*dA*dA*dT*dG*eT*eG*eT*eT*eG; antisense) [ISIS 286607, 2′-MOE gapmer targeted to rat RANKL]	at least 40%
tgttggcgtacaggtaatag (eT*eG*eT*eT*eG*dG*d[5mC]*dG*dT*dA*d[5mC]*dA*dG*dG*dT*eA*eA*eT*eA*eG; antisense) [ISIS 286626, 2′-MOE gapmer targeted to rat RANKL]	at least 40%
tttgcacggccccttgaaag (eT*eT*eT*eG*e[5mC]*dA*d[5mC]*dG*dG*d[5mC]*d[5mC]*d[5mC]*d[5mC]*dT*dT*eG*eA*eA*eA*eG; antisense) [ISIS 286605, 2′-MOE gapmer targeted to rat RANKL]	at least 40%
ttttaacgacatataccatc (eT*eT*eT*eT*eA*dA*d[5mC]*dG*dA*d[5mC]*dA*dT*dA*dT*dA*e[5mC]*e[5mC]*eA*eT*e[5mC]; antisense) [ISIS 286630, 2′-MOE gapmer targeted to rat RANKL]	at least 40%
ttttgtacaacgtgggccac (eT*eT*eT*eT*eG*dT*dA*d[5mC]*dA*dA*d[5mC]*dG*dT*dG*dG*eG*e[5mC]*e[5mC]*eA*e[5mC]; antisense) [ISIS 286646, 2′-MOE gapmer targeted to rat RANKL]	at least 40%
